# Assay results published in ChEMBL document CHEMBL1201862, “PubChem BioAssay data set” (2004).
#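 Cultured in 96-well plates, cells were exposed to test compound for 48 hours across five concentrations. GI50: concentration for 50% inhibition of growth.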 Calls of active or inactive are those of the source. Cut-off read from the data, not from the text of the source: active = GI50 up to about 1.1 µM and inactive = higher.
# Key:
# Experiment in all cases: NCI tumour cell line growth inhibition, 48 h
# M19-MEL = system: M19-MEL
# SN12C = system: SN12C
# COLO 205 = system: COLO 205
# RPMI-8226 = system: RPMI-8226
# UACC-257 = system: UACC-257
# CCRF-CEM = system: CCRF-CEM
# NCI-H23 = system: NCI-H23
# SK-MEL-28 = system: SK-MEL-28
# NCI-H460 = system: NCI-H460
# ACHN = system: ACHN
# SK-OV-3 = system: SK-OV-3
# SW-620 = system: SW-620
# HOP-92 = system: HOP-92
# HOP-62 = system: HOP-62
# TK-10 = system: TK-10
# LXFL 529 = system: LXFL 529
# U-251 = system: U-251
# MOLT-4 = system: MOLT-4
# SNB-75 = system: SNB-75
# UO-31 = system: UO-31
# SF-539 = system: SF-539
# 786-0 = system: 786-0
# CAKI-1 = system: CAKI-1
# SR = system: SR
# KM-20L2 = system: KM-20L2
# SF-295 = system: SF-295
# SNB-78 = system: SNB-78
# LOX IMVI = system: LOX IMVI
# HCT-116 = system: HCT-116
# DMS-273 = system: DMS-273
# A549 = system: A549
# OVCAR-3 = system: OVCAR-3
# SK-MEL-5 = system: SK-MEL-5
# HCT-15 = system: HCT-15
# HCC 2998 = system: HCC 2998
# NCI-H522 = system: NCI-H522
# Malme-3M = system: Malme-3M
# RXF 393 = system: RXF 393
# HL-60 = system: HL-60
# HT-29 = system: HT-29
# DMS-114 = system: DMS-114
# KM12 = system: KM12
# SNB-19 = system: SNB-19
# K562 = system: K562
# SF-268 = system: SF-268
# A498 = system: A498
# SK-MEL-2 = system: SK-MEL-2
# OVCAR-4 = system: OVCAR-4
# M14 = system: M14
# EKVX = system: EKVX
# UACC-62 = system: UACC-62
# OVCAR-8 = system: OVCAR-8
# IGROV-1 = system: IGROV-1
structure (smiles),measurement,setting,value
CCCCCCCC(=O)OCC1OC(n2cc(F)c(=O)[nH]c2=O)C(NC(=O)OCc2ccccc2)C(O)C1O (stereo not drawn),GI50,M19-MEL,56.8 µM (inactive)
same,GI50,SN12C,32.9 µM (inactive)
same,GI50,COLO 205,37.8 µM (inactive)
same,GI50,RPMI-8226,26.4 µM (inactive)
same,GI50,UACC-257,> 100 µM (inactive)
same,GI50,CCRF-CEM,26.5 µM (inactive)
same,GI50,NCI-H23,> 100 µM (inactive)
same,GI50,SK-MEL-28,> 100 µM (inactive)
same,GI50,NCI-H460,> 100 µM (inactive)
same,GI50,ACHN,> 100 µM (inactive)
same,GI50,SK-OV-3,> 100 µM (inactive)
same,GI50,SW-620,> 100 µM (inactive)
same,GI50,HOP-92,23.8 µM (inactive)
same,GI50,HOP-62,> 100 µM (inactive)
same,GI50,TK-10,> 100 µM (inactive)
same,GI50,LXFL 529,31.3 µM (inactive)
same,GI50,U-251,80.2 µM (inactive)
same,GI50,MOLT-4,27.9 µM (inactive)
same,GI50,SNB-75,29.3 µM (inactive)
same,GI50,UO-31,> 100 µM (inactive)
same,GI50,SF-539,83.4 µM (inactive)
same,GI50,786-0,> 100 µM (inactive)
same,GI50,CAKI-1,> 100 µM (inactive)
same,GI50,SR,31.8 µM (inactive)
same,GI50,KM-20L2,47.1 µM (inactive)
same,GI50,SF-295,> 100 µM (inactive)
same,GI50,SNB-78,> 100 µM (inactive)
same,GI50,LOX IMVI,37.1 µM (inactive)
same,GI50,HCT-116,> 100 µM (inactive)
same,GI50,DMS-273,40 µM (inactive)
same,GI50,A549,> 100 µM (inactive)
same,GI50,OVCAR-3,> 100 µM (inactive)
same,GI50,SK-MEL-5,1.55 µM (inactive)
same,GI50,HCT-15,> 100 µM
same,GI50,HCC 2998,19.5 µM (inactive)
same,GI50,NCI-H522,26.2 µM (inactive)
same,GI50,Malme-3M,> 100 µM (inactive)
same,GI50,RXF 393,> 100 µM (inactive)
same,GI50,HL-60,40.3 µM (inactive)
same,GI50,HT-29,> 100 µM (inactive)
same,GI50,DMS-114,41.6 µM (inactive)
same,GI50,KM12,32.4 µM (inactive)
same,GI50,SNB-19,53.3 µM (inactive)
same,GI50,K562,28.2 µM (inactive)
same,GI50,SF-268,46.9 µM (inactive)
same,GI50,A498,> 100 µM (inactive)
same,GI50,SK-MEL-2,20.4 µM (inactive)
same,GI50,OVCAR-4,> 100 µM (inactive)
same,GI50,M14,> 100 µM (inactive)
same,GI50,EKVX,> 100 µM (inactive)
same,GI50,UACC-62,32.1 µM (inactive)
same,GI50,OVCAR-8,> 100 µM (inactive)
same,GI50,IGROV-1,> 100 µM (inactive)
